Laboratory results taken from a melting point compilation (Tetko et al.; mined from patent text by program, amines drawn as free bases though some values may be those of a salt).

Row | SMILES | melting point
1 | COc1cc(Nc2c(C#N)cnc3cc(C#CCCN4CCN(C)CC4)c(OC)cc23)c(Cl)cc1Cl | 165 to 167 °C
2 | CN(C)C=Nc1nc(OCc2ccc(F)cc2)ncc1F | 113 to 115 °C
3 | N#Cc1cccc(NCC(=O)N2CCC(Cc3ccc(F)cc3)CC2)c1 | 138 to 142 °C
4 | CNC(=O)N(O)C(C)c1ccc(Cl)c(C)c1 (configuration not stated) | 99 to 102 °C
5 | CCC(=O)Nc1c([N+](=O)[O-])cnn1-c1ccc(Cl)c(Cl)c1Cl | 79 to 81 °C
6 | CC(C)(C)OC(=O)N1CCc2c(n(CCCc3ccccc3)c3cc(Cl)c(Cl)cc23)CC1 | 119 to 124 °C
7 | CC(C)(C)OC(=O)NCCN(O)C(N)=O | 144 to 146 °C
8 | CCOC(=O)Nc1ccc(OC)c(OC)c1C1OCCO1 | 95 to 96 °C
9 | CCCN(CCC)CCc1ccc(O)c(NC(N)=O)c1 | 168 to 171 °C
10 | Cc1cc(C2=NOC(c3cc(Cl)cc(Cl)c3)(C(F)(F)F)C2)ccc1Cl (configuration not stated) | 110 to 111 °C
11 | Cc1cccc2c1N(CC(=O)N1CC3CCC(CC3)C1)C(=O)C(NC(=O)Nc1cccc(C(=O)O)c1)N=C2c1ccccc1F (configuration not stated) | 197 to 204 °C
12 | CCCCCCN1C(=O)C(=O)c2cc(SCCCc3ccc(C(=O)O)cc3)ccc21 | 150 to 152 °C
13 | CC(=CC(=O)c1ccc(C(=O)N2Cc3cccn3Cc3ccccc32)cc1)N(C)C | 183 to 185 °C
14 | CC(O)C1CCC2C3CC=C4CC(O)CC(O)C4(C)C3CCC12C (configuration not stated) | 235 to 237 °C
15 | CCn1nc(NC(=O)NS(=O)(=O)c2ccccc2C(=O)OC)nc1SC | 188 to 191 °C
16 | COC(=O)CN1C(=S)CN=C(c2ccccc2Cl)c2ccccc21 | 183 to 184 °C

Row | SMILES | melting point
17 | COc1ccc2c(c1)C13CCN(C#N)C(C2)C1CC(C)C(=O)C3 (configuration not stated) | 188 to 192 °C
18 | CCOC(=O)CCCCC(NS(=O)(=O)c1ccc(C)cc1)c1ccc2ccccc2c1 (configuration not stated) | 87 to 91 °C
19 | Cn1cc(-c2c(-c3ccccc3)nn3ccncc23)ccc1=O | 168 to 169 °C
20 | CN(C(=O)Nc1ccc(Oc2ccccc2)cc1)C(Cl)C(Cl)(Cl)Cl (configuration not stated) | 160 to 162 °C
21 | CCOCCn1c(C2CCN(C)C(c3ccc(C(C)(C)C)cc3)C2)nc2ccccc21 (configuration not stated) | 51 to 53 °C
22 | CC(C)(C)OC(=O)Nc1cc(C(F)(F)F)ccc1-c1cc(Oc2ccc3cccnc3c2)ncn1 | 159 to 162 °C
23 | O=C(O)CCCCCCCCn1nnc(-c2ccccc2)c1-c1ccccc1 | 86 to 87 °C
24 | OCC1CC(n2c(N3CCC3)nc3cc(Cl)c(Cl)cc32)C(O)C1O (configuration not stated) | 221 to 222 °C
25 | N#CCC(=O)Nc1c([N+](=O)[O-])cnn1-c1c(Cl)cc(C(F)(F)F)cc1Cl | 221 to 223 °C
26 | Cc1cc(F)c(Nc2ncnc3cc(NC(=O)CCN4CCOCC4)ccc23)cc1O | 228 to 233 °C
27 | CCCCCCCCCCOc1ccc(-c2ccc(C#CCCC(C)OC(C)=O)cc2)cc1 (configuration not stated) | 80 to 82 °C
28 | Nc1ncccc1C(=O)NCC1CCN(C[C@H]2COc3cccc(C(F)(F)F)c3O2)CC1 | 101 to 103 °C
29 | COc1ccccc1-c1nc2cc(NC(=O)c3c(C(=O)N4CCC4)cnn3C)ccn2n1 | 258 °C
30 | C[C@H]1[C@@H](O)C(F)(F)C(=O)N1c1ccc(C#N)c(C(F)(F)F)c1 | 128 to 131 °C
31 | S=c1[nH]nc(C=Cc2ccc3ccccc3c2)o1 | > 250 °C

Further lines, results first:

Row | melting point | SMILES
32 | 158 to 159 °C | CC(C)n1c(=O)n(CC#N)c2cc(-c3ncc(C(F)(F)F)cc3Cl)ccc21
33 | 107 to 113 °C | CCCCCCCOC(=S)SC(Cn1ccnc1)c1ccc(Cl)cc1Cl (configuration not stated)
34 | 77 to 78 °C | CCSc1cc(CC=NOC)ccc1N(CC)c1nc(C)cc(C)n1
35 | 115 to 117 °C | CSc1nc2ccc3c(c2o1)C(CCNC(C)=O)CC3 (configuration not stated)
36 | 126 to 128 °C | Cn1cc(Br)cc(Nc2cc3c(cn2)CCN(C(=O)OC(C)(C)C)C3)c1=O
37 | 303 to 305 °C | CCCn1nc2c(N)nc3ncccc3c2c1CC
38 | 172 °C | CCOc1nc2c(nc1C(=O)O)c(C)nn2CC
39 | 111 to 113 °C | CC1CCN(c2cc(C(C)(C)C)ns2)C1=O (configuration not stated)
40 | 146 to 147 °C | Cc1ccc(S(=O)(=O)N(Cc2ccc(C#N)cc2F)C2CCC2)cc1
41 | 105 to 106 °C | C=CCN1C(=O)c2cscc2Nc2ccccc21
42 | 207 to 208 °C | CCCCn1c(=O)cc(-c2ccc(NCCO)cc2)[nH]c1=O
43 | 125 to 127 °C | COc1ccc2sc(S(N)(=O)=O)cc2c1
44 | 108 to 109 °C | COCCNC(=O)c1ccnc(-c2cccc3cc(Cc4cccc(C(F)(F)F)c4)sc23)c1
45 | 136 to 138 °C | CCOc1csc(C)c1C1OC(=O)NC1=O (configuration not stated)
46 | 33 to 34 °C | COC(=O)C(C)Nc1c(C)csc1C (configuration not stated)
47 | 139 to 141 °C | O=[N+]([O-])c1cn(-c2cccnc2)nc1Br
48 | 207 to 208 °C | O=C1CCCc2ccc(OCCCCN3CCN(c4cccc5c4CCC5)CC3)nc2N1
49 | 133 to 135 °C | COc1cc(C(C)=O)ccc1OCCCCN1CCC(c2n[nH]c3ccccc23)CC1
50 | 98 to 100 °C | COc1ccc(C#N)cc1OC1COCC1OC (configuration not stated)
51 | 145 to 146 °C | CC(C)(C)COc1c(-c2ccc(S(C)(=O)=O)cc2)cnn(CC(F)(F)F)c1=O
52 | 45 °C | CCOc1nc(NCc2ccco2)nc(Nc2ccc(O)cc2)n1

Row | melting point | SMILES
53 | 102 to 103 °C | CC(=O)c1c(O)cccc1OCC(C)(O)Oc1ccc(Br)cc1 (configuration not stated)
54 | 182 to 184 °C | CC(=O)c1ccc2c(c1)C(NC(=NC#N)Nc1ccccc1)C(O)C(C)(C)O2 (configuration not stated)
55 | 140 to 142 °C | CCOC(=O)C(=Cc1cccn2cc(C(F)(F)F)nc12)N=[N+]=[N-]
56 | 138 to 140 °C | CCOC(=O)c1cc(S(=O)C(F)(F)C(F)F)c(-c2ccc(Cl)cc2)[nH]1 (configuration not stated)
57 | 72 to 73 °C | CCOC(=O)Nc1ccc(Br)cc1F
58 | 206 to 209 °C | CC1c2cnc3ccc(O[Si](C)(C)C(C)(C)C)cc3c2C(CO[Si](C)(C)C(C)(C)C)C(O)C1O (configuration not stated)
59 | 99 to 100 °C | COc1ccc(OCc2ccccc2)cc1C=O
60 | 157 to 158 °C | C1=Cn2cnnc2Cc2ccccc21
61 | 86 to 89 °C | CCCCOCCOc1ccc(-c2ccc(N3CCCCCC3)c(C=C(C)C(=O)OC)c2)cc1
62 | 64 to 65 °C | CC(C)(C)[C@H]1CC[C@@H](Nc2nnc(Cc3ccncc3)c3ccccc23)CC1
63 | 191 to 192 °C | CCOC(=O)c1sc(C2=C(C)NC(C)=C(C(=O)OC)C2c2ccccc2[N+](=O)[O-])nc1C (configuration not stated)
64 | 204 to 207 °C | Nc1c(Cl)cc(Nc2ncnc3cnc(N[C@H]4CC[C@H](C(=O)N5CCOCC5)CC4)nc23)cc1Cl
65 | 128 to 131 °C | CNC(Cc1ccccc1N)C(=O)c1ccc(OC)c(OC)c1 (configuration not stated)
66 | 153 °C | OC(CNC1=NCCN1)c1ccc(F)cc1 (configuration not stated)
67 | 135 to 137 °C | CCOC(=O)c1cnc2c(OC)csc2c1Cl
68 | 160 to 163 °C | O=C1CSCC2=C1C(c1ccc(F)c(Br)c1)n1nccc1N2 (configuration not stated)
69 | 51 °C | CC(=O)OC1CSC(Oc2cccc(-c3ncccc3F)c2)C(OC(C)=O)C1OC(C)=O (configuration not stated)
70 | 77 to 79 °C | CC(C)(C)C(=O)C(Cc1cccnc1)Oc1ccc(Cl)cc1 (configuration not stated)
71 | 184 to 186 °C | CC(=O)c1c(C)c(NC(=O)CC(C)(C)C)c(C)c2c1S(=O)(=O)CC2c1ccc(C(C)C)cc1 (configuration not stated)
72 | 192 to 196 °C | COC(=O)C1=C2c3sccc3SC(Cl)CN2CC(c2ccccc2)=C1 (configuration not stated)
